# Source: patent publication US8273774B2, “Phenoxypyridinylamide compounds” (AstraZeneca AB, priority 2008, dated 2012)
# Target: recombinant Human Phosphodiesterase B2 (PDE4B2) (Homo sapiens, UniProt Q07343)
# Test: Human Phosphodiesterase B2 Radiometric Assay
# Format: biochemical
# Conditions: 0.1 μg/mL recombinant PDE4B2; preincubated at 30 C for 30 min; [3H]cyclic AMP 8 nM, stopped after 20 min; yttrium silicate SPA beads; read-out: PDE4B2 pIC50 (converted)
# Outline: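 SPA read-out: product 5′AMP binds yttrium silicate beads (added with 18 mM ZnSO4 after 20 min) in preference to [3H]cAMP substrate, given at 8 nM final.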
# recombinant Human Phosphodiesterase B2 (PDE4B2), sequence (Q07343 1-564 isoform Q07343-2): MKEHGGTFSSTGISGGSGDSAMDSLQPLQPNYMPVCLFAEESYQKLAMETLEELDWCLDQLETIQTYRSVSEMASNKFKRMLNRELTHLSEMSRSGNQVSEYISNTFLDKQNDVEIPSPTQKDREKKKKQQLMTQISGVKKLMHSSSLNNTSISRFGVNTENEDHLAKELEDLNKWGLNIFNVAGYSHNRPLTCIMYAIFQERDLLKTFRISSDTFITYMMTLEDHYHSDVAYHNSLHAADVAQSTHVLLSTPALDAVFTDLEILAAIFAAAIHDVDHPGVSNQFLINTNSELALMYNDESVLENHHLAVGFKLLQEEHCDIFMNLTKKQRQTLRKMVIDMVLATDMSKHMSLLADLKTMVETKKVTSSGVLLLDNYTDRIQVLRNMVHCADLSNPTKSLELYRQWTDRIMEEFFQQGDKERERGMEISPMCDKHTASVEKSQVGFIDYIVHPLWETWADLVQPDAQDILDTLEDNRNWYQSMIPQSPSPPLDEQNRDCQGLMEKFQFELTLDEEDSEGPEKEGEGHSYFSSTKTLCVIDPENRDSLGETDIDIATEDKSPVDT
row,Compound,IC50 [nM]
1,"C[C@@H]1CN(CCCc2ccc(-c3cccc(Oc4ncc(F)cc4C(=O)N[C@H]4CC[C@@H](NC(=O)c5nc(CO)cs5)CC4)c3)cc2)C[C@H](C)N1 [Example 150, N-((1s,4s)-4-(2-(4′-(3-((3S,5R)-3,5-dimethylpiperazin-1-yl)propyl)biphenyl-3-yloxy)-5-fluoronicotinamido)cyclohexyl)-4-(hydroxymethyl)thiazole-2-carboxamide]",0.0794
2,"C[C@@H]1CN(Cc2cccc(-c3cccc(Oc4ncc(F)cc4C(=O)N[C@H]4CC[C@@H](NC(=O)c5cc6ccccn6n5)CC4)c3)c2)C[C@H](C)N1 [Example 151, N-((1s,4s)-4-(2-(3′-(((3S,5R)-3,5-dimethylpiperazin-1-yl)methyl)biphenyl-3-yloxy)-5-fluoronicotinamido)cyclohexyl)pyrazolo[1,5-a]pyridine-2-carboxamide]",0.0631
3,"Cc1cc(C(=O)N[C@H]2CC[C@@H](NC(=O)c3cc(F)cnc3Oc3cccc(-c4ccc(CCCNCCCO)cc4)c3)CC2)nn1C [Example 152, N-((1s,4s)-4-(1,5-dimethyl-1H-pyrazole-3-carboxamido)cyclohexyl)-5-fluoro-2-(4′-(3-(3-hydroxypropylamino)propyl)biphenyl-3-yloxy)nicotinamide]",0.0398
4,"Cc1cccc(C(=O)N[C@H]2CC[C@@H](NC(=O)c3cc(F)cnc3Oc3cccc(-c4ccc(CCCN5CCNCC5)cc4)c3)CC2)n1 [Example 153, N-((1s,4s)-4-(5-fluoro-2-(4′-(3-(piperazin-1-yl)propyl)biphenyl-3-yloxy)nicotinamido)cyclohexyl)-6-methylpicolinamide]",0.0316
5,"Cc1cc(C(=O)N[C@H]2CC[C@@H](NC(=O)c3cc(F)cnc3Oc3cccc(-c4ccc(CCN5CCC(N6CCCC6)CC5)cc4)c3)CC2)nn1C [Example 154, N-((1s,4s)-4-(1,5-dimethyl-1H-pyrazole-3-carboxamido)cyclohexyl)-5-fluoro-2-(4′-(2-(4-(pyrrolidin-1-yl)piperidin-1-yl)ethyl)biphenyl-3-yloxy)nicotinamide]",0.0316
6,"C[C@@H]1CN(CCCc2ccc(-c3cccc(Oc4ncc(F)cc4C(=O)N[C@H]4CC[C@@H](NC(=O)c5cscn5)CC4)c3)cc2)C[C@H](C)N1 [Example 155, N-((1s,4s)-4-(2-(4′-(3-((3S,5R)-3,5-dimethylpiperazin-1-yl)propyl)biphenyl-3-yloxy)-5-fluoronicotinamido)cyclohexyl)thiazole-4-carboxamide]",0.0398
7,"Cc1cc(C(=O)N[C@H]2CC[C@@H](NC(=O)c3cc(F)cnc3Oc3cccc(-c4ccc(CCCN5C[C@@H](C)N[C@@H](C)C5)cc4)c3)CC2)[nH]n1 [Example 156, 2-(4′-(3-((3S,5R)-3,5-Dimethylpiperazin-1-yl)propyl)biphenyl-3-yloxy)-5-fluoro-N-((1s,4s)-4-(3-methyl-1H-pyrazole-5-carboxamido)cyclohexyl)nicotinamide]",0.126
8,"Cc1cc(C(=O)N[C@H]2CC[C@@H](NC(=O)c3cc(F)cnc3Oc3cccc(-c4ccc(CCCN5CCNCC5)cc4)c3)CC2)n[nH]1 [Example 157, 5-Fluoro-N-((1s,4s)-4-(5-methyl-1H-pyrazole-3-carboxamido)cyclohexyl)-2-(4′-(3-(piperazin-1-yl)propyl)biphenyl-3-yloxy)nicotinamide]",0.0794
9,"Cc1cccc(C(=O)N[C@H]2CC[C@@H](NC(=O)c3cc(F)cnc3Oc3cccc(-c4ccc(CCCNCCCO)cc4)c3)CC2)n1 [Example 158, N-((1s,4s)-4-(5-Fluoro-2-(4′-(3-(3-hydroxypropylamino)propyl)biphenyl-3-yloxy)nicotinamido)cyclohexyl)-6-methylpicolinamide]",0.0316
10,"O=C(N[C@H]1CC[C@@H](NC(=O)c2cc(F)cnc2Oc2cccc(-c3ccc(CCCNCCCO)cc3)c2)CC1)c1cc2ccccn2n1 [Example 159, N-((1s,4s)-4-(5-Fluoro-2-(4′-(3-(3-hydroxypropylamino)propyl)biphenyl-3-yloxy)nicotinamido)cyclohexyl)pyrazolo[1,5-a]pyridine-2-carboxamide]",0.0501
